Results reported in patent US11040954B1, “CXCR3 receptor agonists” (RECEPTOS LLC, priority 2016, dated 2021).

Molecular target: T1, CXCR3 (Homo sapiens, UniProt P49682)
T1 construct: host or cells: CHO-K1 (cAMP Hunter CHOK1 CXCR3 Gi cell line)
T1 sequence (P49682 1-368): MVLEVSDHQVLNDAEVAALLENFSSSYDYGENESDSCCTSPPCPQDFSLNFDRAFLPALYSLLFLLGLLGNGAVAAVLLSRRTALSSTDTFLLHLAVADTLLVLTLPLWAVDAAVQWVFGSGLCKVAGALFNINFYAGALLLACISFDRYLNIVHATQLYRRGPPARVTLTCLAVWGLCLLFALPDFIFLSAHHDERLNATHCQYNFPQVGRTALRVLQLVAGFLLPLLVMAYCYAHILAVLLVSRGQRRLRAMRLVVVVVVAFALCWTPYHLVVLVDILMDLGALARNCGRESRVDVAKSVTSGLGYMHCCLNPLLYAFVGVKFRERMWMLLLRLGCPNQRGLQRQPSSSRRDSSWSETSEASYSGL
Assay: CXCR3 cAMP agonist assay (cAMP Hunter CHOK1 CXCR3 Gi cell line, forskolin-stimulated, HitHunter cAMP detection)
Format: cell-based
Details: cAMP Hunter CHOK1 CXCR3 Gi cells, 20 μM forskolin, 30 minutes; read-out: Activity (CXCR3 cAMP agonist assay compound EC50)
Method in brief: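 CHOK1 cells expressing human CXCR3 with Gi coupling, 50,000/well in suspension in HBSS/10 mM HEPES/0.1% BSA pH 7.4, were co-treated with 20 μM forskolin and compound (12-point, 0-10 μM, 1% DMSO) for 30 min. cAMP was read by enzyme-complementation luminescence; CXCL11 dose response set maximum efficacy.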

Row | SMILES | EC50
1 | Cc1cc(NC(=O)[C@H](CCN)NC(=O)[C@@H]2Cc3ccccc3CN2C(=O)CCC(=O)N2C3CCC2CN(C)C3)ccc1Cl [Compound 12-105] | > 500 nM
2 | NCCCC[C@H](NC(=O)[C@@H]1Cc2ccccc2CN1C(=O)CCC(=O)c1ccccc1)C(=O)Nc1ccc(Cl)c(Cl)c1 [Compound 1-1, (S)—N—((S)-6-amino-1-((3,4-dichlorophenyl)amino)-1-oxohexan-2-yl)-2-(4-oxo-4-phenylbutanoyl)-1,2,3,4-tetrahydroisoquinoline-3-carboxamide] | 50 to 250 nM
3 | Cc1cc(NC(=O)[C@H](CCN)NC(=O)[C@@H]2Cc3ccccc3CN2C(=O)CCC(=O)N2C[C@@H](C)O[C@@H](C)C2)ccc1Cl [Compound 12-1, (S)—N—((S)-4-amino-1-((4-chloro-3-methylphenyl)amino)-1-oxobutan-2-yl)-2-(4-((2R,6S)-2,6-dimethylmorpholino)-4-oxobutanoyl)-1,2,3,4-tetrahydroisoquinoline-3-carboxamide] | 50 to 250 nM
4 | CN(C(=O)CCC(=O)N1Cc2ccccc2C[C@H]1C(=O)NC1(C(=O)Nc2ccc(Cl)c(Cl)c2F)CCNCC1)C(C)(C)C [Compound 12-125] | 50 to 250 nM
5 | CCN1CCN(C(=O)CCC(=O)N2Cc3ccccc3C[C@H]2C(=O)N[C@@H](CCN)C(=O)Nc2ccc(Cl)c(C)c2)C(C)(C)C1 [Compound 12-126] | 50 to 250 nM
6 | CCc1c(Cl)ccc(NC(=O)[C@H](CCN)NC(=O)[C@@H]2Cc3ccccc3CN2C(=O)CCC(=O)c2ccccc2)c1Cl [Compound 14-21] | 50 to 250 nM
7 | CN(C)CC1CCCCN1C(=O)CCC(=O)N1Cc2ccccc2C[C@H]1C(=O)N[C@@H](CCN)C(=O)Nc1ccc(Cl)c(Cl)c1F (stereo partly drawn) [Compound 15-17] | > 500 nM
8 | CN(C)CCN(C)C(=O)CCC(=O)N1Cc2ccccc2C[C@H]1C(=O)N[C@@H](CCN)C(=O)Nc1ccc(Cl)c(Cl)c1F [Compound 15-28] | > 500 nM

Continued, values first:

Row | EC50 | SMILES
9 | < 50 nM | COC1CCN(C(=O)CCC(=O)N2Cc3ccccc3C[C@H]2C(=O)N[C@@H](CCN)C(=O)Nc2ccc(Cl)c(C)c2)CC1 [Compound 12-42]
10 | < 50 nM | Cc1cc(NC(=O)[C@H](CCN2CCCC2)NC(=O)[C@@H]2Cc3ccccc3CN2C(=O)CCC(=O)c2ccccc2)ccc1Cl [Compound 3-8]
11 | < 50 nM | Cc1cc(NC(=O)[C@H](CCN)NC(=O)[C@@H]2Cc3ccccc3CN2C(=O)CCC(=O)N2CCCC3(CCC3)C2)cc(C)c1Cl [Compound 10-11]
12 | < 50 nM | COc1cc2c(cc1NC(=O)[C@H](CCN)NC(=O)[C@@H]1Cc3ccccc3CN1C(=O)CCC(=O)c1ccccc1)CCC2 [Compound 1-39]
13 | < 50 nM | Cc1cc(NC(=O)[C@H](CCN)NC(=O)[C@@H]2Cc3ccccc3CN2C(=O)CCC(=O)N2CCC(C(C)(C)C)CC2)ccc1Cl [Compound 12-87]
14 | < 50 nM | CC1(C)CCCCN1C(=O)CCC(=O)N1Cc2ccccc2C[C@H]1C(=O)NC1(C(=O)Nc2ccc(Cl)c(Cl)c2F)CCNCC1 [Compound 12-135]
15 | < 50 nM | CO[C@@H]1CCCN(C(=O)CCC(=O)N2Cc3ccccc3C[C@H]2C(=O)N[C@@H](CCN)C(=O)Nc2ccc(Cl)c(Cl)c2F)C1 [Compound 15-27]
16 | < 50 nM | NCC[C@H](NC(=O)[C@@H]1Cc2ccc(O)cc2CN1C(=O)CCC(=O)c1ccccc1)C(=O)Nc1ccc(Cl)c(Cl)c1F [Compound 4-20]
17 | < 50 nM | Cc1cc(NC(=O)[C@H](CCN)NC(=O)[C@@H]2Cc3ccccc3CN2C(=O)CCC(=O)N2CC(C(C)(C)C)C2)ccc1Cl [Compound 12-40]
18 | < 50 nM | Cc1cc(NC(=O)[C@H](CCN)NC(=O)[C@@H]2Cc3ccccc3CN2C(=O)CCC(=O)N2CCCC3(CCC3)C2)ncc1Cl [Compound 12-158]
19 | < 50 nM | NCC[C@H](NC(=O)[C@@H]1Cc2ccccc2CN1C(=O)CCC(=O)N1CCCC12CCC2)C(=O)Nc1ccc2c(c1)CCC2 [Compound 10-6]
20 | < 50 nM | Cc1cc(NC(=O)[C@H](CCNS(C)(=O)=O)NC(=O)[C@@H]2Cc3ccccc3CN2C(=O)CCC(=O)N2CCCCC2)ccc1Cl [Compound 32-2]
21 | < 50 nM | N#Cc1ccccc1NC(=O)[C@H](CCN)NC(=O)[C@@H]1Cc2ccccc2CN1C(=O)CCC(=O)c1ccccc1 [Compound 27-4]
